# Laboratory results: US20140377216A1, “ANTICANCER FUSION PROTEIN” (ADAMED SP. Z.O.O., priority 2011, published 2014)
# Key:
# [1] = system: human lung cancer NCI-H460-Luc2; test: Lung cancer model, Experiment C: NCI-H460-Luc2 xenograft; type: in vivo, Crl:SHO-PrkdcscidHrhr mice; conditions: 20 mg/kg i.v. 6 times every second day, 29 day
# Description: (§1) Tumor size was measured using electronic calliper, tumor volume was calculated using the formula: (a^2×b)/2, where a=shorter diagonal of the tumor (mm) and b=longer diagonal of the tumor (mm). Inhibition of tumor growth was calculated using the formula:
# (§2) TGI[%](Tumor growth inhibition)=(WT/WC)×100−100%
# (§3) wherein WT is the average tumor volume in the treatment group, and WC is the average tumor volume in the control group.
# On day 0 Crl:SHO-Prkdc^scidHr^hr mice were grafted subcutaneously (s.c.) in the right side with 5×10^6 of NCI-H460-Luc2 cells suspended in 0.1 ml of HBSS buffer using syringe with a needle 0.5×25 mm (Bogmark). On the 11 day of the experiment mice were randomized to obtain the average size of tumors in the group of ˜100-120 mm^3 and assigned to treatment groups. The treatment groups were administered with the preparations of fusion protein of the invention of Ex. 11^a (40 mg/kg and 30 mg/kg), and rhTRAIL114-281 (20 mg/kg) as a comparison against formulation buffer (19 mM NaH2PO4, 81 mM Na2HPO4, 50 mM NaCl, 5 mM glutathione, 0.1 mM ZnCl2, 10% glycerol, pH 7.4) as a control. The preparations were administered intravenously (i.v) 6 times once daily every second day (in case of fusion protein of the invention of Ex. 11^a first administration at a dose 40 mg/kg and subsequent at 30 mg/kg. On the 29 day of the experiment mice were sacrificed by disruption of the spinal cord.
# human lung cancer A549 [2] = test: Lung cancer model, Experiment A: A549 xenograft; type: in vivo; conditions: A549, Cby.Cg-foxn1(nu)/J mice; 20 mg/kg i.v. 6 times every second day; 35 day
# Description: as §1, §2, §3
# On day 0 Cby.Cg-foxn1(nu)/J mice were grafted subcutaneously (s.c.) in the right side with 5×10^6 of A549 cells suspended in 0.1 ml of the mixture HBSS:Matrigel 4:1 using syringe with a needle 0.5×25 mm (Bogmark). On the 19 day of the experiment mice were randomized to obtain the average size of tumors in the group of ˜75 mm3 and assigned to treatment groups. The treatment groups were administered with the preparations of fusion protein of the invention of Ex. 11^a (15 mg/kg), and rhTRAIL114-281 (20 mg/kg) as a comparison and water for injections as a control. The preparations were administered intravenously (i.v) 6 times once daily every second day. On the 35 day of the experiment mice were sacrificed by disruption of the spinal cord.
# human colon cancer SW620 = test: Colon cancer model, Experiment B: SW620 xenograft; type: in vivo, Crl:SHO-PrkdcscidHrhr mice; conditions: 30 mg/kg i.v. 6 times every second day, 31 day
# Description: as §1, §2, §3
# On day 0 Crl:SHO-Prkdc^scidHr^hr mice were grafted subcutaneously (s.c.) in the right side with 5×10^6 of SW620 cells suspended in 0.1 ml of the mixture HBSS:Matrigel 3:1 using syringe with a needle 0.5×25 mm (Bogmark). On the 17 day of the experiment mice were randomized to obtain the average size of tumors in the group of ˜320 mm^3 and assigned to treatment groups. The treatment groups were administered with the preparation of fusion protein of the invention of Ex. 16^a (20 mg/kg) and rhTRAIL114-281 (30 mg/kg) as a comparison against formulation buffer (19 mM NaH2PO4, 81 mM Na2HPO4, 50 mM NaCl, 5 mM glutathione, 0.1 mM ZnCl2, 10% glycerol, pH 7.4) as a control. The preparations were administered intravenously (i.v) 6 times once daily every second day. On the 31 day of the experiment mice were sacrificed by disruption of the spinal cord.
# [3] = system: pancreatic carcinoma MIA PaCa-2; test: Pancreas cancer model, Experiment B: MIA PaCa-2 xenograft; type: in vivo, Crl:SHO-PrkdcscidHrhr mice; conditions: rhTRAIL 50 mg/kg i.v. six times every second day, 61th day
# Description: as §1, §2, §3
# On day 0 Crl:SHO-Prkdc^scidHr^hr mice were grafted subcutaneously (s.c.) in the right flank region with 5×10^6 of MIA PaCa-2 cells suspended in 0.1 ml of 3:1 mixture HBSS buffer:Matrigel using syringe with a 0.5×25 mm needle (Bogmark). When tumors reached the size of 60-398 mm^3 (day 20), mice were randomized to obtain the average size of tumors in the group of ˜170 mm^3 and assigned to treatment groups. The treatment groups were administered with the preparations of fusion protein of the invention of Ex. 16^b (50 mg/kg) and rhTRAIL114-281 (50 mg/kg) as a comparison and reference compound gemcytabine (Gemzar, Eli Lilly) (50 mg/kg). The preparations were administered intravenously (i.v.) six times every second day, gemcytabine was applied intraperitoneally (i.p.) in the same schedule. The control group received formulation buffer.
# When a therapeutic group reached the average tumor size of ˜1000 mm^3, mice were sacrificed by the cervical dislocation.
# human lung cancer A549 [4] = test: Lung cancer model, Experiment B: A549 xenograft; type: in vivo, Crl:SHO-PrkdcscidHrhr mice; conditions: A549, Crl:SHO mice; 20 mg/kg i.v. 6 times every second day; 34 day
# Description: as §1, §2, §3
# Experiment B. On day 0 Crl:SHO-Prkdc^scidHr^h mice were grafted subcutaneously (s.c.) in the right side with 7×10^6 of A549 cells suspended in 0.1 ml of the mixture HBSS:Matrigel 3:1 using syringe with a needle 0.5×25 mm (Bogmark). On the 17 day of the experiment mice were randomized to obtain the average size of tumors in the group of ˜100-120 mm^3 and assigned to treatment groups. The treatment groups were administered with the preparations of fusion protein of the invention of Ex. 11^a (40 mg/kg), and rhTRAIL114-281 (20 mg/kg) as a comparison against formulation buffer (19 mM NaH2PO4, 81 mM Na2HPO4, 50 mM NaCl, 5 mM glutathione, 0.1 mM ZnCl2, 10% glycerol, pH 7.4) as a control. The preparations were administered intravenously (i.v) 6 times once daily every second day. On the 34 day of the experiment mice were sacrificed by disruption of the spinal cord.
substance,measurement,setting,value
"rhTRAIL114-281: recombinant human soluble TRAIL, amino acids 114-281 of hTRAIL, used as comparative reference",TGI (tumor growth inhibition) relative to the control,[1],76%
same,TGI (tumor growth inhibition) relative to the control,human lung cancer A549 [2],0%
same,TGI (tumor growth inhibition) relative to the control,human colon cancer SW620,−9%
same,TGI (tumor growth inhibition) relative to the control,[3],68%
same,TGI (tumor growth inhibition) relative to the control,human lung cancer A549 [4],21.8%
